# Test results: patent publication US20090062401A1, “DECALINE-DERIVED COMPOUNDS AS […] ACTIVE AGENTS” (UNIVERSITAT DORTMUND, priority 2004, published 2009)
# Molecular target: VHR (Homo sapiens, UniProt P51452)
# Assay: VHR phosphatase inhibition, general phosphatase assay using para-nitrophenylphosphate
# Assay type: biochemical
# Conditions: read-out: IC50 Target VHR
# Source text: (§1) Assays protocols for the other enzymes mentioned herein (MtPTPA, PP1, VHR, PTP1B) are disclosed in Schweizer R A S, Atanasov, G A, Frey B M, and Odermatt A, Mol. Cell. Endocrinol. 2003, 212, 41-49 and Barratte, B., Meijer L., Galaktionov K. & Beach D, Anticancer Res. 1992, 12, 873-880. For determination of the phosphatase activity, a general phosphatase assay using para-nitrophenylphosphate was applied.
# Chain of VHR (P51452 whole entry, species assumed): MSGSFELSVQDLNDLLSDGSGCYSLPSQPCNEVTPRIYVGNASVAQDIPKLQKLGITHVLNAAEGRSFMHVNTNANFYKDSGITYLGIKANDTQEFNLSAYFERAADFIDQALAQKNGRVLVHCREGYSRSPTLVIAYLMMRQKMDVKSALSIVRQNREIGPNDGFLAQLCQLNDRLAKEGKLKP
row,IC50 [µM],Compound
1,10 to 50,"C=C(C)[C@H]1CC=C(/C=C2\C[C@@]3(C)C(=CC2=O)CCC[C@@H]3O)CC1 [Compound 286, (3E,4aS,5S)-4,4a,5,6,7,8-Hexahydro-5-hydroxy-4a-methyl-3-{[(R)-4-(prop-1-en-2-yl)cyclohex-1-enyl]methylen}naphthalen-2(3H)-one]"
2,10 to 50,"CC1(Cc2ccccc2[N+](=O)[O-])C(=O)CC[C@@]2(C)C1CCC[C@@H]2O (stereo partly drawn) [Compound 405, (4aS,5S)-5-Hydroxy-1,4a-dimethyl-1-(2-nitro-benzyl)-octahydro-naphthalen-2-one]"
3,10 to 50,"CC1=C2CCC[C@H](O)[C@@]2(C)C/C(=C\c2ccc(O)c(O)c2O)C1=O [Compound 107, (3E,4aS,5S)-3-(2,3,4-Trihydroxybenzyliden)-4,4a,5,6,7,8-hexahydro-5-hydroxy-1,4a-dimethylnaphthalen-2(3H)-one]"
4,10 to 50,"COc1cc(CC2(C)C(NC3CCCCC3)CC[C@@]3(C)C2CCC[C@@H]3O)cc(OC)c1 (stereo partly drawn) [Compound 146, (1S,8aS)-5-(3,5-Dimethoxybenzyl)-6-(cyclohexylamino)-decahydro-5,8a-dimethylnaphthalen-1-ol]"
5,10 to 50,"CC1(CCc2ccccc2)C(=O)/C(=C/c2ccc(I)cc2)CC2(C)C1CCCC21OCCO1 (stereo not drawn) [Compound 402, (7′E)-7′-(4-iodo-benzylidene)-5′,8a′-dimethylhexahydro-5′-(2-phenylethyl)-2′H-spiro[1,3-dioxolane-2,1′-naphthalen]-6′(5′H)-one]"
6,10 to 50,"CCOC(=O)CC1(C)C(=O)CC[C@@]2(C)C1CCC[C@@H]2O (stereo partly drawn) [Compound 153, Ethyl-2-[(4aS,5S)-decahydro-5-hydroxy-1,4a-dimethyl-2-oxonaphthalen-1-yl]acetat]"
7,10 to 50,"CCc1ccc(/C=C2\C[C@@]3(C)C(CCC[C@@H]3O)C(C)C2=O)c(C)c1 (stereo partly drawn) [Compound 89, (E,4aS,5S)-3-(4-Ethyl-2-methylbenzyliden)-octahydro-5-hydroxy-1,4a-dimethylnaphthalen-2(1H)-one]"
8,10 to 50,"COc1cc(OC)c(OC)cc1/C=C1\CCC2[C@H](C)C(O)CC[C@]2(C)C1=O (stereo partly drawn) [Compound 267, (E,5S,8aS)-2-(2,4,5-Trimethoxy-benzyliden)-octahydro-6-hydroxy-5,8a-dimethylnaphthalen-1(2H)-one]"
9,< 10,"CC1=C2CCC[C@H](O)[C@@]2(C)C/C(=C\c2cc(C)cs2)C1=O [Compound 19, (3E,4aS,5S)-4,4a,5,6,7,8-Hexahydro-5-hydroxy-1,4a-dimethyl-3-[(4-methylthiophen-2-yl)methylen]naphthalen-2(3H)-one]"

# The remaining lines, values behind:
row,Compound,IC50 [µM]
1,"C[C@]12C/C(=C\c3ccc(C#Cc4ccccc4)cc3)C(=O)C=C1CCC[C@@H]2O [Compound 136, (3E,4aS,5S)-3-[4-(2-Phenylethinyl)benzyliden]-4,4a,5,6,7,8-hexahydro-5-hydroxy-4a-methylnaphthalen-2(3H)-one]",10 to 50
2,"COc1cc(OC)c(/C=C2\C[C@]3(C)C(=O)CCCC3=C(C)C2=O)c(OC)c1 [Compound 408, (3E,4aS)-5,8a-Dimethyl-7-(2,4,6-trimethoxy-benzylidene)-3,4,8,8a-tetrahydro-2H,7H-naphthalen-1,6-dione]",10 to 50
3,"C=CC[C@@]12C(=CC(=O)/C(=C/c3ccc(C)o3)[C@@H]1C)CCC[C@@H]2O [Compound 242, (3E,4R,4aS,5S)-4a-Allyl-4,4a,5,6,7,8-hexahydro-5-hydroxy-4-methyl-3-[(5-methylfuran-2-yl)methylen]naphthalen-2(3H)-on]",10 to 50
4,"CCCCCCCCc1ccc(/C=C2\C[C@@]3(C)C(=C(C)C2=O)CCC[C@@H]3O)c(C)c1 [Compound 20, (3E,4aS,5S)-3-(2-Methyl-4-octyl-benzyliden)-4,4a,5,6,7,8-hexahydro-5-hydroxy-1,4a-dimethyl-naphthalen-2(3H)-one]",10 to 50
5,"CCCCCCC#Cc1ccc(/C=C2\C[C@@]3(Cc4ccccc4)C(=C(C)C2=O)CCC[C@@H]3O)cc1 [Compound 126, (3E,4aS,5S)-3-[4-(Oct-1-inyl)benzyliden]-4a-benzyl-4,4a,5,6,7,8-hexahydro-5-hydroxy-1-methylnaphthalen-2(3H)-one]",10 to 50
6,"CC1=C2CCC[C@H](O)[C@@]2(C)C/C(=C\c2ccccc2)C1=O [Compound 18, (3E,4aS,5S)-3-benzylidene-4,4a,5,6,7,8-hexahydro-5-hydroxy-1,4a-dimethylnaphthalen-2(3H)-one]",10 to 50
7,"CC1C(=O)/C(=C/c2ccccc2OCc2ccccc2)C[C@@]2(C)C1CCC[C@@H]2O (stereo partly drawn) [Compound 190, (E,4aS,5S)-3-[2-(Benzyloxy)-benzyliden]-octahydro-5-hydroxy-1,4a-dimethylnaphthalen-2(1H)-one]",10 to 50
8,"CC1=C2CCC[C@H](O)[C@@]2(C)C/C(=C\c2c(C)c(C)c(C)c(C)c2C)C1=O [Compound 215, (3E,4aS,5S)-3-(2,3,4,5,6-Pentamethylbenzyliden)-4,4a,5,6,7,8-hexahydro-5-hydroxy-1,4a-dimethylnaphthalen-2(3H)-one]",10 to 50
9,"CC1=C2CCC[C@H](O)[C@@]2(C)C/C(=C\c2c[nH]c3ccccc23)C1=O [Compound 115, (3E,4aS,5S)-3-[(1H-Indol-3-yl)methylen]-4,4a,5,6,7,8-hexahydro-5-hydroxy-1,4a-dimethylnaphthalen-2(3H)-one]",10 to 50
10,C=CC[C@@]12C(=CC(=O)/C(=C/C3=CC[C@@H](C(=C)C)CC3)[C@@H]1C)CCC[C@@H]2O [Compound 241],10 to 50
11,"C[C@H]1/C(=C\c2ccccc2)C(=O)C=C2CCC[C@H](O)[C@]21C [Compound 203, (3E,4R,4aS,5S)-3-Benzyliden-4,4a,5,6,7,8-hexahydro-5-hydroxy-4,4a-dimethylnaphthalen-2(3H)-one]",10 to 50
12,"C[C@@H]1C(O)CC[C@]2(C)C(=O)/C(=C/c3ccco3)CCC12 (stereo partly drawn) [Compound 266, (E,5S,8aS)-2-[(Furan-2-yl)methylen]-octahydro-6-hydroxy-5,8a-dimethylnaphthalen-1(2H)-one]",10 to 50
13,"CCCC(C)/C=C1\C[C@@]2(C)C(=CC1=O)CCC[C@@H]2O (stereo partly drawn) [Compound 225, (3E,4aS,5S)-4,4a,5,6,7,8-Hexahydro-5-hydroxy-4a-methyl-3-(2-methylpentyliden)naphthalen-2(3H)-one]",10 to 50
14,"C[C@]12C/C(=C\c3ccccc3OCc3ccccc3)C(=O)C=C1CCC[C@@H]2O [Compound 223, (3E,4aS,5S)-3-[2-(Benzyloxy)benzyliden]-4,4a,5,6,7,8-hexahydro-5-hydroxy-4a-methylnaphthalen-2(3H)-one]",10 to 50
15,"CC1=C2CCC[C@H](O)[C@@]2(C)C/C(=C\c2ccc(Cl)cc2)C1=O [Compound 7, (3E,4aS,5S)-3-(4-Chlorobenzyliden)-4,4a,5,6,7,8-hexahydro-5-hydroxy-1,4a-dimethylnaphthalen-2(3H)-one]",10 to 50
16,CC1=C2CCC[C@H](O)[C@@]2(C)C/C(=C\c2ccoc2)C1=O [Compound 62],10 to 50

# Molecular target: T1, PTP1B (Homo sapiens, UniProt P18031)
# T1 sequence (P18031 1-435): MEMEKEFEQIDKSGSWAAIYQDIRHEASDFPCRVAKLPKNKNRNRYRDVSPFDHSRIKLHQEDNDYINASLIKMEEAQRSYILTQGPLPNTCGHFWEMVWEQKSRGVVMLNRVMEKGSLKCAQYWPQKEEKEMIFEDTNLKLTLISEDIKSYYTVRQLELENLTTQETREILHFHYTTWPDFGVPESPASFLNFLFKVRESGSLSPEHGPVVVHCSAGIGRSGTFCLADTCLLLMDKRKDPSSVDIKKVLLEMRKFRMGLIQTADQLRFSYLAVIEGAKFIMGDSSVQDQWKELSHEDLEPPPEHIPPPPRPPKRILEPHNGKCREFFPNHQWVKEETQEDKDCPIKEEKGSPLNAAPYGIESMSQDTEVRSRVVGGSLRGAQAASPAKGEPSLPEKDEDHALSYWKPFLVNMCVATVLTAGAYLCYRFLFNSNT
# Assay: PTP1B phosphatase inhibition, general phosphatase assay using para-nitrophenylphosphate
# Assay type: biochemical
# Conditions: read-out: IC50 Target PTP1B
# Source text: as §1
row,IC50 [µM],Compound
1,10 to 50,"CCCCCCCCCC#Cc1ccc(/C=C2\C[C@@]3(C)C(=C(C)C2=O)CCC[C@@H]3O)cc1 [Compound 90, (3E,4aS,5S)-3-[4-(Undec-1-inyl)benzyliden]-4,4a,5,6,7,8-hexahydro-5-hydroxy-1,4a-dimethylnaphthalen-2(3H)-one]"
2,10 to 50,"C=CC[C@@]12C(=CC(=O)/C(=C/CC)[C@@H]1C)CCC[C@@H]2O [Compound 282, (3E,4R,4aS,5S)-4a-Allyl-4,4a,5,6,7,8-hexahydro-5-hydroxy-4-methyl-3-propylidennaphthalen-2(3H)-one]"
3,10 to 50,"CC1=C2CCC[C@H](O)[C@@]2(C)C/C(=C\c2c(C)c(C)c(C)c(C)c2C)C1=O [Compound 61, (3E,4aS,5S)-3-(2,3,4,5,6-Pentamethylbenzyliden)-4,4a,5,6,7,8-hexahydro-5-hydroxy-1,4a-dimethylnaphthalen-2(3H)-one]"
4,10 to 50,"COC#Cc1ccc(/C=C2\C[C@@]3(C)C(=C(C)C2=O)CCC[C@@H]3O)cc1 [Compound 37, (3E,4aS,5S)-3-[4-(2-Methoxy-ethinyl)benzyliden]-4,4a,5,6,7,8-hexahydro-5-hydroxy-1,4a-dimethylnaphthalen-2(3H)-one]"

# Continued, molecule first:
row,Compound,IC50 [µM]
1,"CC1=C2CCC[C@H](O)[C@@]2(C)C/C(=C\c2ccc(OCc3ccccc3)cc2)C1=O [Compound 66, (3E,4aS,5S)-3-[4-(Benzyloxy)benzyliden]-4,4a,5,6,7,8-hexahydro-5-hydroxy-1,4a-dimethylnaphthalen-2(3H)-one]",10 to 50
2,"CC1=C2CCC[C@H](O)[C@@]2(C)C/C(=C\CCc2ccco2)C1=O [Compound 59, (3E,4aS,5S)-3-[3-(Furan-2-yl)propyliden]-4,4a,5,6,7,8-hexahydro-5-hydroxy-1,4a-dimethylnaphthalen-2(3H)-one]",10 to 50
3,"CC1=C2CCC[C@H](O)[C@@]2(C)C/C(=C\c2ccc(C#Cc3ccc(C)cc3)cc2)C1=O [Compound 41, (3E,4aS,5S)-3-[4-(2-p-Tolylethinyl)benzyliden]-4,4a,5,6,7,8-hexahydro-5-hydroxy-1,4a-dimethyl-naphthalen-2(3H)-one]",10 to 50
4,"CC1=C2CCC[C@H](O)[C@@]2(C)C/C(=C\c2ccco2)C1=O [Compound 34, (3E,4aS,5S)-3-[(Furan-2-yl)methylen]-4,4a,5,6,7,8-hexahydro-5-hydroxy-1,4a-dimethylnaphthalen-2(3H)-one]",10 to 50
